Source: ChEMBL document CHEMBL6177968, “Development of sulfamoylbenzamide-based capsid assembly modulators for hepatitis B virus capsid assembly” (Eur J Med Chem, 2025)

Assays:
Hepatitis B virus [1] = experiment: Antiviral activity against HBV in human HepG2.2.15 cells assessed as reduction in viral replication incubated for 5 days by real-time PCR analysis; type: functional, organism-based; settings: HepG2.2.15, 120 h
[2] = Cytotoxicity in human HepG2.2.15 cells assessed as reduction in cell viability; type: toxicity, cell-based, HepG2 2.2.15
[3] = Selectivity index, ratio of CC50 for cytotoxicity in human HepG2.2.15 cells assessed as reduction in cell viability to EC50 for antiviral activity against HBV in human HepG2.2.15 cells assessed as reduction in viral replication; type: toxicity, cell-based; settings: read-out: Ratio CC50/EC50
[4] = Metabolic stability in mouse liver microsomes assessed as compound remaining measured after 30 mins; type: ADME, Microsome; settings: read-out: Stability
[5] = Metabolic stability in rat liver microsomes assessed as compound remaining measured after 30 mins; type: ADME, Microsome; settings: read-out: Stability
[6] = Metabolic stability in human liver microsomes assessed as compound remaining measured after 30 mins; type: ADME, Microsome; settings: read-out: Stability
[7] = Stability in mouse plasma assessed as compound remaining incubated for 4 hrs; type: ADME, cell-free; settings: read-out: Stability
[8] = Stability in human plasma assessed as compound remaining incubated for 4 hrs; type: ADME, cell-free; settings: read-out: Stability
[9] = Plasma protein binding in mouse; type: ADME, cell-free; settings: read-out: PPB (converted)
[10] = Plasma protein binding in human; type: ADME, cell-free; settings: read-out: PPB (converted)
[11] = Cytotoxicity in African green monkey Vero cells; type: toxicity, cell-based, Chlorocebus sabaeus
[12] = Cytotoxicity in HFL1 cells; type: toxicity, cell-based; settings: human
[13] = Cytotoxicity in mouse L929 cells; type: toxicity, cell-based
[14] = Cytotoxicity in mouse NIH3T3 cells; type: toxicity, cell-based
[15] = Cytotoxicity in CHO-K1 cells; type: toxicity, cell-based, Cricetulus griseus; settings: Chinese hamster
Cytochrome P450 1A2 = target: T1, Cytochrome P450 1A2 (Homo sapiens, UniProt P05177); experiment: Inhibition of CYP1A2 in human liver microsome; type: ADME, microsomes
T1 sequence (P05177 whole entry): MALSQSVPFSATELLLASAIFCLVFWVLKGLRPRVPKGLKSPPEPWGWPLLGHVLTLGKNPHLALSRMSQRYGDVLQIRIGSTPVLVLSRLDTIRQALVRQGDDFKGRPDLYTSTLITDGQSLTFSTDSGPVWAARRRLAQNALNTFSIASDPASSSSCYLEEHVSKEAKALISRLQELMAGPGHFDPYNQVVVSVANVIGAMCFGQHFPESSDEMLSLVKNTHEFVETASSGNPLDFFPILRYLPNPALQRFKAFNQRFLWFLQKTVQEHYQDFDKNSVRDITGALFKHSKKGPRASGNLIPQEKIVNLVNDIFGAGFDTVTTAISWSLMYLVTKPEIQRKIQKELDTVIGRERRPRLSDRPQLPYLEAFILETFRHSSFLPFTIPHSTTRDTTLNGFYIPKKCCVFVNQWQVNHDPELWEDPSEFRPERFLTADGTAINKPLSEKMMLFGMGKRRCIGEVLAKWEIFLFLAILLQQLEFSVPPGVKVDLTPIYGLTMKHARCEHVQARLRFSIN

Cytochrome P450 2C9 = Cytochrome P450 2C9 (Homo sapiens, UniProt P11712); experiment: Inhibition of CYP2C9 in human liver microsome; type: ADME, microsomes
Sequence of Cytochrome P450 2C9 (P11712 whole entry): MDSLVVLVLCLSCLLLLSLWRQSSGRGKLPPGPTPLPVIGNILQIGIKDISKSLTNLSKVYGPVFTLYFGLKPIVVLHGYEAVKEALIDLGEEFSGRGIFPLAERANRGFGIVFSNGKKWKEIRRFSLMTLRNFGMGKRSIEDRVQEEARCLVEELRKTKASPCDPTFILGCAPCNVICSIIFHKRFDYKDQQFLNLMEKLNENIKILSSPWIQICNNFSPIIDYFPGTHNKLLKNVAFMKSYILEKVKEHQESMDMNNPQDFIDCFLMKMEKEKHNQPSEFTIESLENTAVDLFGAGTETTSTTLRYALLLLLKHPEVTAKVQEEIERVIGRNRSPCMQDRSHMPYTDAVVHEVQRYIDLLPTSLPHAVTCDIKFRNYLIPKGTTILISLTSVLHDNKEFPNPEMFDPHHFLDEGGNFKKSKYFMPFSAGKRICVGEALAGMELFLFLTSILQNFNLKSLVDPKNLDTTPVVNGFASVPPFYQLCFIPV

Cytochrome P450 2C19 = Cytochrome P450 2C19 (Homo sapiens, UniProt P33261); experiment: Inhibition of CYP2C19 in human liver microsome; type: ADME, microsomes
Sequence of Cytochrome P450 2C19 (P33261 whole entry): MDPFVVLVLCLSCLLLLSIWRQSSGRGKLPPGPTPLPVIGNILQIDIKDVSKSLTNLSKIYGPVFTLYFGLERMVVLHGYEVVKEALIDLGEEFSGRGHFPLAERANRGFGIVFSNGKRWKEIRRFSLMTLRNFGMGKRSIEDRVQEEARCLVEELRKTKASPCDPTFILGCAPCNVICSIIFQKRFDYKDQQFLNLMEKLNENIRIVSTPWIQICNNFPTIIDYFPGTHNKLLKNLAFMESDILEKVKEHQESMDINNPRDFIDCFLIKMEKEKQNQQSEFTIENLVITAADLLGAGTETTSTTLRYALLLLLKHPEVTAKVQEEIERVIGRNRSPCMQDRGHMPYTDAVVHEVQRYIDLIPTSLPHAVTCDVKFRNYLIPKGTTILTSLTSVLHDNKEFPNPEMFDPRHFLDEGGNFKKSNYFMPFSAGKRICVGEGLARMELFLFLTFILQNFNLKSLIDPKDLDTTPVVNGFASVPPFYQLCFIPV

Cytochrome P450 2D6 = Cytochrome P450 2D6 (Homo sapiens, UniProt P10635); experiment: Inhibition of CYP2D6 in human liver microsome; type: ADME, microsomes
Sequence of Cytochrome P450 2D6 (P10635 whole entry): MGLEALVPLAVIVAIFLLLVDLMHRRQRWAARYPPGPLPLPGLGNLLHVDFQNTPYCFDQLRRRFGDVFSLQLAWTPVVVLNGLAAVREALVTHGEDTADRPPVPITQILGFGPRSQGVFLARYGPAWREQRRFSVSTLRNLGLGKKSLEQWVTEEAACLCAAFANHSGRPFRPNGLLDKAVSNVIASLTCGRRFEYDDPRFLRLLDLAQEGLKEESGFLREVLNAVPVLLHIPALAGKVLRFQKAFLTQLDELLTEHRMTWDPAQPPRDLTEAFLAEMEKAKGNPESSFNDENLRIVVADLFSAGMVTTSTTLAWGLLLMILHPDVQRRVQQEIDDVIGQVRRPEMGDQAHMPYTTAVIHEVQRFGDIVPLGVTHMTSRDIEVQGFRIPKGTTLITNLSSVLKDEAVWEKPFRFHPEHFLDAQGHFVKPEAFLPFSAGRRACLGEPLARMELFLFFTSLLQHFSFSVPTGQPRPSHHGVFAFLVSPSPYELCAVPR

Cytochrome P450 3A4 = Cytochrome P450 3A4 (Homo sapiens, UniProt P08684); experiment: Inhibition of CYP3A4 in human liver microsome; type: ADME, microsomes
Sequence of Cytochrome P450 3A4 (P08684 whole entry): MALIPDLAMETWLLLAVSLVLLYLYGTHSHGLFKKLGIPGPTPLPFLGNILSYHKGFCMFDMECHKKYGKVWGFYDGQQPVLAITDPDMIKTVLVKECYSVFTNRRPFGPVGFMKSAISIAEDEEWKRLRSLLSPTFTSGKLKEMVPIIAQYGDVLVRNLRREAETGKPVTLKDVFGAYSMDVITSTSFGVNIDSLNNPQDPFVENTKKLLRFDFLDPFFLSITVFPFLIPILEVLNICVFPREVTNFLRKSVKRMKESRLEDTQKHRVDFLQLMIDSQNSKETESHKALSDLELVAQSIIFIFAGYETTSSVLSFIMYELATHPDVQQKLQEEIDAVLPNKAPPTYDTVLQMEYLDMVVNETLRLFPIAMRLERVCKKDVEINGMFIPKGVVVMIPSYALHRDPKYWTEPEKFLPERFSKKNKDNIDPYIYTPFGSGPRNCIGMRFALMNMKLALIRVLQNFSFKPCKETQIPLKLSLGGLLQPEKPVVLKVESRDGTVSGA

[16] = target: Voltage-gated inwardly rectifying potassium channel KCNH2 (Homo sapiens, UniProt Q12809); experiment: Inhibition of human ERG; type: toxicity
Sequence of Voltage-gated inwardly rectifying potassium channel KCNH2 (Q12809 whole entry): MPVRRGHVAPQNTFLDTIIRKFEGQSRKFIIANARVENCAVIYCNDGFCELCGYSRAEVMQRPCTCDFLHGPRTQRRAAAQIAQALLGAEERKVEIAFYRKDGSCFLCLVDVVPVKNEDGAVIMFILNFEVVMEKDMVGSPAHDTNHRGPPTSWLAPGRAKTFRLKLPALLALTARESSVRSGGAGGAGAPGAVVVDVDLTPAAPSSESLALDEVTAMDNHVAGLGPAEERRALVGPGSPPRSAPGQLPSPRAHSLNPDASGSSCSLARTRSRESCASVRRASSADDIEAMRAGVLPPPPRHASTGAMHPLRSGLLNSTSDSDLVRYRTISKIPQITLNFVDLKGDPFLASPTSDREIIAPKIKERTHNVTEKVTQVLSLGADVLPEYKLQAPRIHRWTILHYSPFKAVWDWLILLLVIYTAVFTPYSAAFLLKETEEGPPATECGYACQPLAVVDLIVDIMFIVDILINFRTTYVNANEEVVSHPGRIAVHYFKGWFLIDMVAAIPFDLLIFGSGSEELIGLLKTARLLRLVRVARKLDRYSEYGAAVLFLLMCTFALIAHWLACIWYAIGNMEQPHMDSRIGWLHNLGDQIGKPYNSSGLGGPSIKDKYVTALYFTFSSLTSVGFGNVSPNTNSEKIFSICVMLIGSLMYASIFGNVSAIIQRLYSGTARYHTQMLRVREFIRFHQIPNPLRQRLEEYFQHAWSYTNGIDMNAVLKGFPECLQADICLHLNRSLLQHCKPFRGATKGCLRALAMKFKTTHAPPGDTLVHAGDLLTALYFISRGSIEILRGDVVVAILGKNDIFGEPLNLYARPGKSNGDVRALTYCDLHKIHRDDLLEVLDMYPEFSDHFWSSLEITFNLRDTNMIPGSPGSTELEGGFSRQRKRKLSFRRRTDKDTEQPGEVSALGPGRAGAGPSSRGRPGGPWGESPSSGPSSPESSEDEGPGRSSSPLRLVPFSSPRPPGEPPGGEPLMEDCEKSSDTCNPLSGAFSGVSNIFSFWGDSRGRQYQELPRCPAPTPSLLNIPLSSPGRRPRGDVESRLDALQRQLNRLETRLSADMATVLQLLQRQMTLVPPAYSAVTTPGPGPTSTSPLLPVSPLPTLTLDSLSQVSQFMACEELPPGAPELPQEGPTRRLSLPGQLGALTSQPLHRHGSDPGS

Hepatitis B virus [17] = experiment: Antiviral activity against HBV in human HepG2 cells expressing NTCP assessed as reduction in viral replication; type: functional, organism-based
Hepatitis B virus [18] = experiment: Antiviral activity against HBV in human HepaRG cells assessed as reduction in viral replication; type: functional, organism-based
[19] = Cytotoxicity in human HepG2-hNTCP cells assessed as reduction in cell viability; type: toxicity, cell-based
[20] = Cytotoxicity in human HepaRG cells assessed as reduction in cell viability; type: toxicity, cell-based
[21] = Selectivity index, ratio of CC50 for cytotoxicity in human HepG2-hNTCP cells assessed as reduction in cell viability to EC50 for antiviral activity against HBV in human HepG2-hNTCP cells assessed as reduction in viral replication; type: toxicity, cell-based; settings: read-out: Ratio CC50/EC50
[22] = Selectivity index, ratio of CC50 for cytotoxicity in human HepaRG cells assessed as reduction in cell viability to EC50 for antiviral activity against HBV in human HepaRG cells assessed as reduction in viral replication; type: toxicity, cell-based; settings: read-out: Ratio CC50/EC50
[23] = Half life in male mouse at 5 mg/kg, iv; type: ADME, organism-based; settings: in vivo
[24] = AUClast in male mouse at 5 mg/kg, iv; type: ADME, organism-based; settings: in vivo
[25] = AUC (0 to infinity) in male mouse at 5 mg/kg, iv; type: ADME, organism-based; settings: in vivo
[26] = Clearance in male mouse at 5 mg/kg, iv; type: ADME, organism-based; settings: in vivo
[27] = Volume of distribution at steady state in male mouse at 5 mg/kg, iv; type: ADME, organism-based; settings: in vivo, read-out: Vdss
[28] = Half life in male mouse at 20 mg/kg, iv; type: ADME, organism-based; settings: in vivo
[29] = AUClast in male mouse at 20 mg/kg, iv; type: ADME, organism-based; settings: in vivo
[30] = AUC (0 to infinity) in male mouse at 20 mg/kg, iv; type: ADME, organism-based; settings: in vivo
[31] = Clearance in male mouse at 20 mg/kg, iv; type: ADME, organism-based; settings: in vivo
[32] = Volume of distribution at steady state in male mouse at 20 mg/kg, iv; type: ADME, organism-based; settings: in vivo, read-out: Vdss
[33] = Tmax in male mouse at 5 mg/kg, po; type: ADME, organism-based; settings: in vivo
[34] = Cmax in male mouse at 5 mg/kg, po; type: ADME, organism-based; settings: in vivo
[35] = Half life in male mouse at 5 mg/kg, po; type: ADME, organism-based; settings: in vivo
[36] = AUClast in male mouse at 5 mg/kg, po; type: ADME, organism-based; settings: in vivo
[37] = AUC (0 to infinity) in male mouse at 5 mg/kg, po; type: ADME, organism-based; settings: in vivo
[38] = Oral bioavailability in male mouse at 5 mg/kg; type: ADME, organism-based; settings: in vivo
[39] = Tmax in male mouse at 20 mg/kg, po; type: ADME, organism-based; settings: in vivo
[40] = Cmax in male mouse at 20 mg/kg, po; type: ADME, organism-based; settings: in vivo
[41] = Half life in male mouse at 20 mg/kg, po; type: ADME, organism-based; settings: in vivo
[42] = AUClast in male mouse at 20 mg/kg, po; type: ADME, organism-based; settings: in vivo
[43] = AUC (0 to infinity) in male mouse at 20 mg/kg, po; type: ADME, organism-based; settings: in vivo
[44] = Oral bioavailability in male mouse at 20 mg/kg; type: ADME, organism-based; settings: in vivo
Hepatitis B virus [45] = experiment: Antiviral activity against HBV infected in human HepG2 cells expressing NTCP assessed as viral DNA replication at 1 uM incubated for 6 days by Southern blot analysis (reference value: 100 %); type: functional; settings: time 6 day
Hepatitis B virus [46] = experiment: Antiviral activity against HBV infected in human HepG2 cells expressing NTCP assessed as fold reduction in capsid associated viral DNA level at 1 uM incubated for 6 days by Southern blot analysis relative to control; type: functional; settings: time 6 day
Hepatitis B virus [47] = experiment: Antiviral activity against HBV infected in human HepG2 cells expressing NTCP assessed as capsid level at 1 uM incubated for 6 days by Western blot analysis (reference value: 100 %); type: functional; settings: time 6 day
Hepatitis B virus [48] = experiment: Antiviral activity against HBV infected in human HepG2 cells expressing NTCP assessed as capsid associated HBV DNA level at 1 uM incubated for 6 days by Western blot analysis (reference value: 100 %); type: functional; settings: time 6 day
HepG2 [49] = experiment: Effect on viral rcDNA level in human HepG2 cells expressing NTCP infected with HBV at 1 uM incubated for 6 days by Southern blot analysis; type: functional, cell-based; settings: time 6.0 day
HepG2 [50] = experiment: Effect on viral dslDNA level in human HepG2 cells expressing NTCP infected with HBV at 1 uM incubated for 6 days by Southern blot analysis; type: functional, cell-based; settings: time 6.0 day
HepG2 [51] = experiment: Effect on viral ssDNA level in human HepG2 cells expressing NTCP cells infected with HBV at 1 uM incubated for 6 days by Southern blot analysis; type: functional, cell-based; settings: time 6.0 day
Hepatitis B virus [52] = experiment: Antiviral activity against HBV infected in human HepG2 cells expressing NTCP assessed as fold increase in intracellular capsid level at 1 uM incubated for 6 days by Western blot analysis relative to control; type: functional; settings: time 6 day
Hepatitis B virus [53] = experiment: Antiviral activity against HBV infected in human HepG2 cells expressing NTCP assessed as decrease in intracellular HBc level at 1 uM incubated for 6 days by indirect immunofluorescence staining based analysis; type: functional, organism-based; settings: time 6.0 day
Hepatitis B virus [54] = experiment: Antiviral activity against HBV infected in human HepG2 cells expressing NTCP assessed as intracellular HBc level at 1 uM incubated for 6 days by Western blot analysis (reference value: 100 %); type: functional; settings: time 6 day
Hepatitis B virus [55] = experiment: Antiviral activity against HBV infected in human HepG2 cells expressing NTCP assessed as ratio of capsid associated HBV DNA level at 1 uM incubated for 6 days by Western blot analysis (reference value: 100 %); type: functional; settings: time 6 day

Nc1cc(F)c(S(=O)(=O)N[C@H]2CNC2=O)cc1C(=O)Nc1ccc(F)c(C(F)F)c1
EC50 (Hepatitis B virus [1]): 0.12 µM
CC50 [2]: 173 µM
selectivity ratio [3]: 1420
remaining at 0.5 h [4]: 49%
remaining at 0.5 h [5]: 51%
remaining at 0.5 h [6]: 66.9%
remaining at 4 h [7]: 43.2%
remaining at 4 h [8]: 85.4%
fraction unbound [9]: 0.0555
fraction unbound [10]: 0.115
IC50 [11]: > 100 µM
IC50 [12]: > 100 µM
IC50 [13]: > 100 µM
IC50 [14]: > 100 µM
IC50 [15]: > 100 µM
IC50 (Cytochrome P450 1A2): > 100 µM
IC50 (Cytochrome P450 2C9): 31.1 µM
IC50 (Cytochrome P450 2C19): 44.5 µM
IC50 (Cytochrome P450 2D6): 29.9 µM
IC50 (Cytochrome P450 3A4): 26.1 µM
IC50 [16]: > 10 µM
EC50 (Hepatitis B virus [17]): 0.11 µM
EC50 (Hepatitis B virus [18]): 0.55 µM
CC50 [19]: > 100 µM
CC50 [20]: > 100 µM
selectivity ratio [21]: > 909
selectivity ratio [22]: > 182
half-life [23]: 2.37 h
AUC(0-t) [24]: 2390 ng·h/mL
AUC(0-inf) [25]: 2400 ng·h/mL
clearance [26]: 35.2 mL/min/kg
Vd [27]: 2.95 L/kg
half-life [28]: 5.15 h
AUC(0-t) [29]: 6880 ng·h/mL
AUC(0-inf) [30]: 6950 ng·h/mL
clearance [31]: 50.5 mL/min/kg
Vd [32]: 4.16 L/kg
Tmax [33]: 0.5 h
Cmax [34]: 280 ng/mL
half-life [35]: 2.8 h
AUC(0-t) [36]: 620 ng·h/mL
AUC(0-inf) [37]: 620 ng·h/mL
bioavailability [38]: 26%
Tmax [39]: 0.33 h
Cmax [40]: 900 ng/mL
half-life [41]: 5.52 h
AUC(0-t) [42]: 1510 ng·h/mL
AUC(0-inf) [43]: 1600 ng·h/mL
bioavailability [44]: 21.9%
Activity (Hepatitis B virus [45]): 13%
fold change (FC) (Hepatitis B virus [46]): 8
Activity (Hepatitis B virus [47]): 183%
Activity (Hepatitis B virus [48]): 19%
Activity (HepG2 [49]): No effect
Activity (HepG2 [50]): No effect
Activity (HepG2 [51]): No effect
fold change (FC) (Hepatitis B virus [52]): ~2
Activity (Hepatitis B virus [53]): Active; Compound Modestly Decreased Hbc Level
Activity (Hepatitis B virus [54]): 129%
Ratio (Hepatitis B virus [55]): 10%
